This passage reports IC50 results from ChEMBL document CHEMBL5532726, “Somatostatin Receptor Subtype 4 Agonists for Potential Treatment of Alzheimer's Disease and Other Central Nervous System Disorders” (ACS Med Chem Lett, 2024).

In this experiment the target is Somatostatin receptor type 1 (Homo sapiens, UniProt P30872).

A value given as a limit tells only on which side of the number the result lay.

Sequence of Somatostatin receptor type 1 (P30872 whole entry): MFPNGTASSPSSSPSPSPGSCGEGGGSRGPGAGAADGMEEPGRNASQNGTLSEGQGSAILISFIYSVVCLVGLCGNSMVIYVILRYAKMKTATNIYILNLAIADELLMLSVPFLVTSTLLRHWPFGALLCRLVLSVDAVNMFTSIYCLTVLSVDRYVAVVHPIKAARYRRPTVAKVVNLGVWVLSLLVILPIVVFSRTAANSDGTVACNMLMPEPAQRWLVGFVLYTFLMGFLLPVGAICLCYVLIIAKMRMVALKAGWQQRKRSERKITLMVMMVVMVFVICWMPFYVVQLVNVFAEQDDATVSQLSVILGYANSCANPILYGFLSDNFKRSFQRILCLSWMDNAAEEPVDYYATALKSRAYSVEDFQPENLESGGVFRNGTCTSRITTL

In general, IC50 refers to the point on the concentration scale where inhibition reaches its midpoint. Higher therefore signals weaker potency. `CC(Oc1ccccc1C1CC1)C(=O)N[C@H]1CCNC[C@@H]1F` (stereo partly specified) yielded a concentration for half-maximal inhibition (IC50) above 50.1 µM.
